# Test results as given in publication PMC3433414, “Oral Administration of the Pimelic Diphenylamide HDAC Inhibitor HDACi 4b Is Unsuitable for Chronic Inhibition of HDAC Activity in the CNS In Vivo” (PLoS ONE, 2012).
# Columns and labels:
# [1] = dissolved upon heating; room temperature; cited from earlier work
# R6/2 mice = conditions: cited from earlier work
# [2] = tested on: histone acetylation in mouse brain; assay: Histone acetylation in brain tissue (central pharmacodynamics); conditions: 200 mg/kg sc; positive control
# Procedure: Cortical tissue from the mice was assessed using specific antibodies for increases in acetylation of specific lysine residues on Histones H3 (H3K4, H3K9, H3K14) and H4 (H4K5) as well as global acetylation of H3 (Ac-H3) and H4 (Ac-H4). The acetylation level was normalized to total H3 and H4 expression level. The samples from the rest of the brain were analyzed for terminal 4b levels at the time of sacrifice. […] Mouse brains were harvested, dissected, immediately frozen in liquid nitrogen and stored at −80°C. Mouse brain tissue was homogenized (polytron homogenizer, 20 s) in 2 volumes of histone extraction buffer (1×PBS, 5% Triton X-100 (v/v), 3 mM DTT, 1 mM orthovanadate, 5 mM NaF, 1 mM PMSF, 5 mM Na Butyrate, Roche complete protease inhibitor tablet) and centrifuged at 900 g for 8 min at 4°C. The resulting pellet was washed twice in 1 ml of histone extraction buffer before being re-suspended in 2–3 volumes of 0.2 M HCl. Samples were then vortexed briefly and left to shake vigorously for 3 h at 4°C using a VXR Vibrax 1.5 ml polypropylene tube shaker (IKA). After shaking, samples were centrifuged at 900 g for 8 min at 4°C and the resulting supernatant was retained and neutralized with 0.2 volumes of 1 M NaOH.
smiles,measurement,setting,value
O=C(CCCCCCC(=O)Nc1ccccc1)NO [SAHA],stability in cyclodextrins,[1],stable for seven days
same,"motor dysfunction (rotarod performance, grip strength)",R6/2 mice; drinking water,significant improvement in motor dysfunction
same,maximum tolerated dose,R6/2 mice; in drinking water,0.67 g/L
same,histone acetylation in cortical tissue,[2],"robust enhancement of acetylation of H3K9, H4K5, and total acetylated levels of H3 and H4"
